Source: ChEMBL document CHEMBL1153977, “Fluorinated non-imidazole histamine H3 receptor antagonists” (Bioorg Med Chem Lett, 2009)

Experiments:
[1] = tested on: Mus musculus; assay: In vivo histamine H3 receptor potency in po dosed Swiss mouse assessed as N'-methylhistamine level; type: functional
[2] = target: Histamine H3 receptor (Homo sapiens, UniProt Q9Y5N1); assay: Displacement of [125I]iodoproxyfan from human histamine H3 receptor expressed in […] cells; type: cell-based, HEK293
Sequence of Histamine H3 receptor (Q9Y5N1 whole entry): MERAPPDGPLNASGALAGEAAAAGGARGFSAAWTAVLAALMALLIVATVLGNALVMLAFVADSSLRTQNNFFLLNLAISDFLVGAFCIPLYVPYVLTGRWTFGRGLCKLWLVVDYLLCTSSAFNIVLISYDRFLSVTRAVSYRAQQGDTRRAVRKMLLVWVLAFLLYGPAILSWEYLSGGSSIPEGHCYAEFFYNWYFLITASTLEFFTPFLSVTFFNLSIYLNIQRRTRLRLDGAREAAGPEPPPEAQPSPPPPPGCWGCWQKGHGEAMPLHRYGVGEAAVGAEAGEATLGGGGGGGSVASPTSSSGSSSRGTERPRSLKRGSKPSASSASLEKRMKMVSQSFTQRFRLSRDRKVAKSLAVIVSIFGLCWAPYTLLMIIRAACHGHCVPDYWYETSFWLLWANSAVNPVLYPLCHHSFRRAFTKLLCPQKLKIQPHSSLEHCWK

SMILES | Ki [2] | ED50 [1]
N#Cc1ccc(OCCCN2CCCCC2)cc1 | 11 nM | 0.2 mg/kg
c1cc(CN2CCCCC2)ccc1COc1ccc(CN2CCCCC2)cc1 |  | 9.6 mg/kg
FCCc1ccc(OCCCN2CCCCC2)cc1 | 43 nM | 
F[C@@H]1CCN(Cc2ccc(OCCCN3CCCC3)cc2)C1 | 0.31 nM | 
FCc1ccc(OCCCN2CCCCC2)cc1 | 17.3 nM | 
FC1CCN(CCCOc2ccc(CN3CCCC3)cc2)CC1 | 0.99 nM | 
CS(=O)(=O)OC1CCN(Cc2ccc(OCCCN3CCCCC3)cc2)CC1 | 0.84 nM | 
F[C@H]1CCN(Cc2ccc(OCCCN3CCCCC3)cc2)C1 | 0.28 nM | 3.9 mg/kg
N#Cc1ccc(OCCCN2CCC(F)(F)CC2)cc1 | > 1000 nM | 
c1cc(OCCCN2CCCCC2)ccc1CN1CCCCC1 [JNJ-5207852] |  | 0.12 mg/kg
Clc1ccc(CCCOCCCN2CCCCC2)cc1 [PITOLISANT] |  | 1.5 mg/kg

Continued by falling Ki [2], values first:

Ki [2] | SMILES | ED50 [1]
0.28 nM | F[C@@H]1CCN(Cc2ccc(OCCCN3CCCCC3)cc2)C1 | 
0.26 nM | FC1CCN(Cc2ccc(OCCCN3CCCC3)cc2)CC1 | 12 mg/kg
0.24 nM | FC1(F)CCN(Cc2ccc(OCCCN3CCCCC3)cc2)CC1 | 0.4 mg/kg
0.2 nM | BrC1CCN(Cc2ccc(OCCCN3CCCCC3)cc2)CC1 | 
0.094 nM | FC1CCN(Cc2ccc(OCCCN3CCCCC3)cc2)CC1 | 7.4 mg/kg
0.068 nM | ClC1CCN(Cc2ccc(OCCCN3CCCCC3)cc2)CC1 | 
